According to EP3300716A1, “BIOFILM FORMATION INHIBITOR” (Riken Vitamin Co., Ltd., priority 2015, dated 2016):
“Also recorded” adds a separate entry of the source.

Columns and labels:
[1] = system: Candida albicans NBRC 1594; assay: Evaluation of biofilm formation inhibitory effect (96-well microplate static culture, crystal violet staining, O.D. 600); type: cell-based; settings: class by 50% inhibitory concentration, threshold 20 ppm
Method: A potato dextrose agar (manufactured by Difco) was sterilized by autoclaving at 121°C for 15 minutes, added to a sterilized culture dish, and solidified to prepare an agar plate. A cryopreserved test fungus was spread on this agar plate and cultured at 30°C for 2 days. A yeast nitrogen base with 2% glucose (manufactured by Difco) was diluted 10-fold and sterilized by autoclaving at 121°C for 15 minutes. Twenty milliliters of this sterilized medium was placed into a conical flask with a baffle, and one loop of the agar-cultured test fungus was inoculated into the conical flask. Preculture was performed at 30°C with agitation at 150 rpm for 24 hours. Then, the fungal cells were collected by centrifugation (4700 rpm, 10 minutes, 20°C) . The collected fungal cells were washed with 20 mL of physiological saline and collected by centrifugation again (4700 rpm, 10 minutes, 20°C) . The collected fungal cells were resuspended in 10 mL of a Sabouraud-dextrose broth (liquid medium which contained 1.0% by mass of peptone and 4.0% by mass of glucose and was adjusted to a pH of 5.7 with 1 N hydrochloric acid, and hereinafter, it is called "SG medium"). This resuspension was diluted 20-fold with SG medium and used as a test fungal suspension. […] The test samples were separately dissolved in dimethyl sulfoxide (DMSO) to prepare test sample solutions. Two microliters of each test sample solution and 198 µL of the test fungal suspension were added to wells of a 96-well microplate (trade name: TC plate 96 well (Cell+); manufactured by Sarstedt) . The concentration of the test sample in the test sample solution was such that the concentration of the test sample in the combined total amount of the test sample solution and the test fungal suspension, i.e., the concentration of the test sample in the well would be 5 ppm, 25 ppm, 50 ppm or 100 ppm. Static culture was performed in the 96-well microplate containing the test sample solution and the test fungal suspension at 30°C for 2 days to allow biofilm formation to proceed in each well. […] After the static culture, the liquid in each well, including the test sample solution, the culture medium and the like, was removed, and the residue adherent to each well (cells, secretions, deposits, etc.) was regarded as a biofilm. To each well, 50 µL of a 0.01% by mass aqueous crystal violet solution (trade name, manufactured by Becton, Dickinson and Company) was added for staining of the biofilm. […] Then, 200 µL of ethanol was added to each well to elute the crystal violet bound to the biofilm, and the degree of formation of the biofilm adherent to the microplate was quantified. The quantification was performed by measuring the absorbance at 600 nm (O.D. 600) in each well with a microplate reader (model: SH-9000 Lab; manufactured by CORONA […] Co., Ltd.). The absorbance at 600 nm measured for the biofilm formed in the control well was used as the reference absorbance and assumed as 100% in terms of the degree of biofilm formation. The degree of biofilm formation for each test sample was calculated by comparison of the absorbance for the test sample with the reference absorbance. […] The graph of the logarithmic approximation curve was used to calculate the concentration of the test sample where the absorbance for the test sample is equal to 50% of the reference absorbance, that is, the degree of biofilm formation was 50% (hereinafter called "50% inhibitory concentration"). […]

[2] = system: Candida albicans NBRC 1594; assay: Evaluation of fungistatic effect (streak culture on brain heart infusion agar plate, visual observation); type: cell-based; settings: for Evaluation of fungistatic effect: 1000 ppm-treated plot, agar plate, 30°C for 1 day; for fungicidal: conclusion drawn from fungal growth at 1000 ppm
Method: Ten milliliters of a brain heart infusion agar (manufactured by Difco) was sterilized by autoclaving at 121°C for 15 minutes and then cooled down to 50°C. To this, 100 µL of a solution of the test sample in dimethyl sulfoxide (DMSO) was added, and the mixture was stirred until homogeneous. The homogeneous mixture was added to a sterilized culture dish to prepare an agar plate. The concentration of the test sample in the agar plate was 10 ppm, 100 ppm, 300 ppm or 1000 ppm. Next, one loop of a cryopreserved test fungus (Candida albicans NBRC 1594) was streaked on each agar plate and cultured at 30°C for 1 day. […] When no growth was observed along the streak line on the agar plate, the test sample was determined to be fungistatic at the indicated concentration.

Candida biofilm = settings: Table 2 of Patent Literature 1; cited from earlier work

Row | Compound | Evaluation [1] | Evaluation of fungistatic effect [2] | fungicidal [2] | effective against biofilm formation (Candida biofilm)
1 | CCCCCCCCCCCC(=O)OCC(O)COC(=O)CCCCCCCCCCC [Reference product 1, monoglyceryl dilaurate, reference compound] | Poor in inhibition of biofilm formation (when the 50% inhibitory concentration of the test sample was more than 20 ppm, the test sample was regarded as poor in the inhibition of biofilm formation) | not fungistatic; also recorded: Fungal growth was observed in a 1000 ppm-treated plot. No fungistatic effect | not fungicidal | –
2 | CC(=O)N1CCN(c2ccc(OCC3COC(Cn4ccnc4)(c4ccc(Cl)cc4Cl)O3)cc2)CC1 (stereo not drawn) [Reference product 2, ketoconazole, reference compound] | Poor in inhibition of biofilm formation (when the 50% inhibitory concentration of the test sample was more than 20 ppm, the test sample was regarded as poor in the inhibition of biofilm formation) | – | – | –
3 | diglyceryl dicaprylate [Present invention product 2] | Excellent in inhibition of biofilm formation (When the 50% inhibitory concentration of the test sample was 20 ppm or less, the test sample was regarded as excellent in the inhibition of biofilm formation) | Fungal growth was observed in a 1000 ppm-treated plot. No fungistatic effect. | none of the present invention products 1, 2, 3 and 4 were fungicidal | –
4 | diglyceryl dicaprylate [Present invention product 3] | Excellent in inhibition of biofilm formation (When the 50% inhibitory concentration of the test sample was 20 ppm or less, the test sample was regarded as excellent in the inhibition of biofilm formation) | Fungal growth was observed in a 1000 ppm-treated plot. No fungistatic effect. | none of the present invention products 1, 2, 3 and 4 were fungicidal | –
5 | diglyceryl monocaprylate | – | – | – | poorly effective against biofilm formation
6 | glyceryl dilaurate | – | – | – | less effective against biofilm formation than glyceryl monolaurate
7 | monoglyceryl dicaprylate [Present invention product 1] | Excellent in inhibition of biofilm formation (When the 50% inhibitory concentration of the test sample was 20 ppm or less, the test sample was regarded as excellent in the inhibition of biofilm formation) | Fungal growth was observed in a 1000 ppm-treated plot. No fungistatic effect. | none of the present invention products 1, 2, 3 and 4 were fungicidal | –
